These results are taken from patent US20240158368A1, “Pyrrolidine Main Protease Inhibitors as Antiviral Agents” (AbbVie Inc., priority 2022, published 2024).

In one data set the target is SARS-CoV-1 Mpro (Severe acute respiratory syndrome coronavirus (SARS-CoV), UniProt P0C6X7). Type of data set: biochemical.
The subject of the next data set is 229E virus. The experiment in a line: organism not typed. Type of data set: cell-based. Particulars: Huh-7, read-out: Antiviral 229E EC50 (μM).
The nature of data set [1]: in vitro. Particulars: PAMPA. On the technique in general: PAMPA measures passive passage across an artificial lipid membrane.
Another data set concerns the target MERS Mpro (Middle East respiratory syndrome-related coronavirus (isolate United Kingdom/H123990006/2012) (MERS-CoV) (Betacoronavirus England 1), UniProt K9N7C7). The experiment in a line: biochemical.
The target in another data set is SARS-CoV-2 Mpro (Severe acute respiratory syndrome coronavirus 2 (2019-nCoV) (SARS-CoV-2), UniProt P0DTD1). Type of data set: biochemical.
Data set [2] is described as follows: in vitro. Particulars: rat, microsomes, pH 7.4.
The subject of data set [3] is SARS-CoV-2 (strain USA-WA1/2020). The experiment in a line: microbe, parasite or virus in culture. The format is cell-based. Particulars: Severe acute respiratory syndrome coronavirus 2; HeLa-ACE2 cells; read-out: Antiviral CoV-2 EC50.
The target of a further data set is OC43 Mpro (Human coronavirus OC43 (HCoV-OC43), UniProt P0C6X6). The format is biochemical.
Chain of OC43 Mpro (P0C6X6 3247-3549 limits assumed): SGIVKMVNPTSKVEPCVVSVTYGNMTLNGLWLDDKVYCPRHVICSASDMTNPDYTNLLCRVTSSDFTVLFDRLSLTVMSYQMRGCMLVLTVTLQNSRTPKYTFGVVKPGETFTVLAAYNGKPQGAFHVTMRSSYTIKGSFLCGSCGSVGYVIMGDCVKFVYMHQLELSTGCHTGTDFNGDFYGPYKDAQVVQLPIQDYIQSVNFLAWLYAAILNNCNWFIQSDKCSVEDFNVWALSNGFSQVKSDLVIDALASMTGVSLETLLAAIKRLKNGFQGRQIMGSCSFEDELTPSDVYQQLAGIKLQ
For a further data set, the target named is 229E Mpro (Human coronavirus 229E (HCoV-229E), UniProt P0C6X1). Type of data set: biochemical.
Chain of 229E Mpro (P0C6X1 2966-3267 limits assumed): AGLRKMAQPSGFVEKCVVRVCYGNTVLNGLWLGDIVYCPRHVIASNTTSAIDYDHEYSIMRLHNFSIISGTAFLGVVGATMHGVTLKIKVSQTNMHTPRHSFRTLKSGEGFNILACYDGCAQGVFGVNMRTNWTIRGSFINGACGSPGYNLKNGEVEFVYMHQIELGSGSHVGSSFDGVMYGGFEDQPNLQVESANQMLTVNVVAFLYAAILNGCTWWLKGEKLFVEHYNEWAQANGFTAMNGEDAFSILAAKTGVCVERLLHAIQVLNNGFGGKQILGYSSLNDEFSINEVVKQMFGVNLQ
The nature of data set [4]: in vitro. Particulars: human, microsomes, pH 7.4.
For the next data set, the system named is OC43 virus. In words: microbe, parasite or virus in culture. The settings on record: Betacoronavirus 1, OC43, Huh-7, read-out: Antiviral OC43 EC50 (μM). The format is cell-based.

Chain of MERS Mpro (K9N7C7 3248-3553 limits assumed): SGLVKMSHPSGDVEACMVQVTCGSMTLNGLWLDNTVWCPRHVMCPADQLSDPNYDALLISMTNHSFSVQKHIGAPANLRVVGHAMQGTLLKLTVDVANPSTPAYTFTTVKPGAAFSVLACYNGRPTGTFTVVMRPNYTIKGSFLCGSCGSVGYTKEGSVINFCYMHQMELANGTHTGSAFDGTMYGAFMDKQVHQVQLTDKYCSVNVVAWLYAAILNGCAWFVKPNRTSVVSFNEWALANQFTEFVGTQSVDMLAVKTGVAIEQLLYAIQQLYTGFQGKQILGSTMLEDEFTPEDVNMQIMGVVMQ

In the case of `COc1cccc2[nH]c(=O)cc(C(=O)N[C@@H]3CCN(c4c(C(=O)N5CCOCC5)cc(C)cc4C4CC4)C3)c12` [Compound 81], the EC50 – broadly, the concentration at which the effect is half-maximal – was 1.38 nM at SARS-CoV-1 Mpro; 0.073 µM with 229E virus; 2.31 nM on MERS Mpro; 0.49 nM on SARS-CoV-2 Mpro; 18.2 nM in data set [3]; 0.66 nM on OC43 Mpro. The half-maximal effective concentration (EC50) at 229E Mpro was determined as 2.13 nM; with OC43 virus, 0.013 µM. In addition, in the data set “in vitro [1]”, the Papp (as a rule, a coefficient for how fast a substance crosses the barrier) came to 2.81 ×10⁻⁶ cm/s. For the same molecule, the CLint scaled – broadly, the rate of metabolic loss divided by the concentration – was 227 mL/min/kg in the data set “in vitro [2]” and 65 mL/min/kg in “in vitro [4]”.
Regarding `O=C(N[C@@H]1CCN(c2c(C(=O)N3CCOCC3)cc(Br)cc2C(F)(F)F)C1)c1cc(C(F)F)[nH]c(=O)c1` [Compound 61], the EC50 on SARS-CoV-1 Mpro is 4.61 nM; with 229E virus, 63.1 µM; on MERS Mpro it was 3.25 nM; on SARS-CoV-2 Mpro it was 1.93 nM; in data set [3] it was 413 nM; at OC43 Mpro, 52.3 nM. The figures for the 50% effective concentration (EC50) at 229E Mpro and in the data set on OC43 virus were 367 nM and 11.4 µM, respectively. The same molecule displayed a Papp in “in vitro [1]” of 15.7 ×10⁻⁶ cm/s. Besides, the figures for the CLint scaled in the data set “in vitro [2]” and in “in vitro [4]” were 83.3 mL/min/kg and 51.7 mL/min/kg, respectively.
As for `O=C(N[C@@H]1CCN(c2c(C(=O)N3CCOCC3)cc(Br)cc2C(F)(F)F)C1)c1c(F)c(=O)[nH]c2c(F)cccc12` [Compound 48], the EC50 on SARS-CoV-1 Mpro stood at 1.15 nM; in the data set with 229E virus, 0.044 µM; on MERS Mpro, 0.9 nM; on SARS-CoV-2 Mpro, 0.43 nM; in data set [3] it was 5.8 nM; at OC43 Mpro, 0.44 nM. Moreover, the EC50 on 229E Mpro turned out to be 1.43 nM; with OC43 virus, 0.031 µM. Moreover, in the data set “in vitro [1]”, the Papp worked out at 17.9 ×10⁻⁶ cm/s. Besides, the CLint scaled in “in vitro [2]” was 210 mL/min/kg; in “in vitro [4]” it was 81.7 mL/min/kg.
In the case of `COc1cccc2[nH]c(=O)cc(C(=O)N[C@@H]3CCN(c4c(C(=O)N5CCOCC5)cc(C#N)cc4C(F)(F)F)C3)c12` [Compound 9], the EC50 at SARS-CoV-1 Mpro amounted to 0.79 nM; with 229E virus, 0.11 µM; on MERS Mpro it was 1.8 nM; on SARS-CoV-2 Mpro it was 0.47 nM; in [3] it was 319 nM; on OC43 Mpro, 2.85 nM. The figures for the EC50 on 229E Mpro and in the data set on OC43 virus were 2.01 nM and 0.28 µM, respectively. The molecule further had a Papp in “in vitro [1]” of 0.34 ×10⁻⁶ cm/s. Also, the intrinsic metabolic clearance (CLint scaled) was less than 58.3 mL/min/kg in the data set “in vitro [2]” and less than 35 mL/min/kg in the data set “in vitro [4]”.
As for `O=C(N[C@@H]1CCN(c2c(C(=O)N3CCOCC3)cc(Cl)cc2C(F)(F)F)C1)c1cc(=O)[nH]c2c(F)cccc12` [Compound 36], the EC50 was found to be 1.43 nM on SARS-CoV-1 Mpro; 0.0578 µM with 229E virus; 1.02 nM on MERS Mpro; 0.49 nM at SARS-CoV-2 Mpro; 9.1 nM in data set [3]; 0.84 nM on OC43 Mpro. The EC50 at 229E Mpro came out at 2.39 nM; with OC43 virus it was 0.0487 µM. This molecule also came in with a Papp in the data set “in vitro [1]” of 14.3 ×10⁻⁶ cm/s. The CLint scaled in “in vitro [2]” is 403 mL/min/kg; in the data set “in vitro [4]” it was 95 mL/min/kg.
As for `O=C(N[C@@H]1CCN(c2c(C(=O)N3CCOCC3)cc(Br)cc2C(F)(F)F)C1)c1cc(=O)[nH]c2c(Cl)cccc12` [Compound 58], the EC50 amounted to 1.07 nM on SARS-CoV-1 Mpro; 0.983 µM in the data set on 229E virus; 0.91 nM at MERS Mpro; 0.42 nM on SARS-CoV-2 Mpro; 5.84 nM on OC43 Mpro; 24.5 nM on 229E Mpro. Also, the concentration giving a half-maximal response (EC50) in the data set with OC43 virus worked out at 0.864 µM. Further, the Papp in the data set “in vitro [1]” was found to be 17.9 ×10⁻⁶ cm/s. Besides, the CLint scaled in the data set “in vitro [2]” is 1000 mL/min/kg; in “in vitro [4]”, 365 mL/min/kg.
In the case of `COc1cccc2[nH]c(=O)cc(C(=O)N[C@@H]3CCN(c4c(Cl)cc(C)cc4C(=O)N4CCOCC4)C3)c12` [Compound 85], the EC50 at SARS-CoV-1 Mpro was 3.13 nM; in the data set on 229E virus it was 0.382 µM; at MERS Mpro, 1.54 nM; at SARS-CoV-2 Mpro, 1.4 nM; in data set [3], 274 nM; at OC43 Mpro it was 2.27 nM. The EC50 on 229E Mpro was found to be 9.16 nM; in the data set on OC43 virus, 0.21 µM. This molecule gave a Papp in “in vitro [1]” of 3.19 ×10⁻⁶ cm/s. Besides, the intrinsic metabolic clearance (CLint scaled) in “in vitro [2]” was 288 mL/min/kg; in the data set “in vitro [4]”, 103 mL/min/kg.
Consider `N#Cc1cc(C(=O)N2CCOCC2)c(N2CC[C@@H](NC(=O)c3c(F)c(=O)[nH]c4c(F)cccc34)C2)c(C(F)(F)F)c1` [Compound 5], for which the EC50 worked out at 1.5 nM at SARS-CoV-1 Mpro; 0.039 µM with 229E virus; 1.26 nM on MERS Mpro; 0.48 nM on SARS-CoV-2 Mpro; 10.2 nM in [3]; 1.25 nM on OC43 Mpro. Besides, the 50% effective concentration (EC50) at 229E Mpro is 1.44 nM; with OC43 virus it was 0.047 µM. The molecule also had a Papp in the data set “in vitro [1]” of 7.23 ×10⁻⁶ cm/s. Besides, the intrinsic metabolic clearance (CLint scaled) is less than 60 mL/min/kg in “in vitro [2]” and less than 36.7 mL/min/kg in “in vitro [4]”.
Turning to `Cc1cc(C(=O)N2CCOCC2)c(N2C[C@H](NC(=O)c3cc(=O)[nH]c4c(F)cc(F)cc34)CC2=O)c(C2CC2)c1` [Compound 74], the EC50 turned out to be 1.43 nM on SARS-CoV-1 Mpro; 0.248 µM in the data set with 229E virus; 1.29 nM at MERS Mpro; 0.59 nM at SARS-CoV-2 Mpro; 52 nM in data set [3]; 3.4 nM at OC43 Mpro. Moreover, the EC50 came out at 7.24 nM on 229E Mpro and 0.429 µM with OC43 virus. For the same molecule, the Papp in “in vitro [1]” is 3.54 ×10⁻⁶ cm/s. Moreover, the values for the intrinsic clearance (CLint scaled) in the data set “in vitro [2]” and in “in vitro [4]” were less than 56.7 mL/min/kg and less than 33.3 mL/min/kg, respectively.
Consider `O=C(N[C@@H]1CCN(c2c(C(=O)N3CCOCC3)cc(Br)cc2C(F)(F)F)C1)c1c(F)c(=O)[nH]c2c(F)c(F)ccc12` [Compound 50], for which the EC50 at SARS-CoV-1 Mpro turned out to be 2.23 nM; with 229E virus, 0.319 µM; at MERS Mpro it was 1.9 nM; on SARS-CoV-2 Mpro, 0.5 nM; in data set [3], 11.4 nM; on OC43 Mpro, 1.2 nM. The half-maximal effective concentration (EC50) on 229E Mpro stood at 4.51 nM; in the data set with OC43 virus, 0.303 µM. Further, the apparent permeability (Papp) in “in vitro [1]” was 16.2 ×10⁻⁶ cm/s. Moreover, the values for the CLint scaled in “in vitro [2]” and in “in vitro [4]” were 165 mL/min/kg and 190 mL/min/kg, respectively.
Consider `N#Cc1cc(C(=O)N2CCOCC2)c(N2C[C@H](NC(=O)c3cc(=O)[nH]c4c(F)c(F)ccc34)CC2=O)c(C(F)(F)F)c1` [Compound 34], for which the EC50 at SARS-CoV-1 Mpro was found to be 2.98 nM; in the data set on 229E virus, 3.37 µM; at MERS Mpro it was 2.28 nM; on SARS-CoV-2 Mpro, 1.12 nM; on OC43 Mpro, 91.8 nM; on 229E Mpro, 41.7 nM. In addition, in the data set on OC43 virus, the concentration giving a half-maximal response (EC50) is 7.32 µM. In “in vitro [1]”, this molecule came in with an apparent permeability (Papp) of 1.04 ×10⁻⁶ cm/s. In addition, the figures for the CLint scaled in the data set “in vitro [2]” and in “in vitro [4]” were less than 45 mL/min/kg and less than 26.7 mL/min/kg, respectively.
Regarding `N#Cc1cc(C(=O)N2CCOCC2)c(N2CC[C@@H](NC(=O)c3cc(=O)[nH]c4c(F)c(F)ccc34)C2)c(C(F)(F)F)c1` [Compound 8], the half-maximal effective concentration (EC50) on SARS-CoV-1 Mpro was determined as 1.52 nM; with 229E virus, 0.25 µM; on MERS Mpro, 1.48 nM; on SARS-CoV-2 Mpro, 0.43 nM; in [3], 19 nM; at OC43 Mpro it was 4.71 nM. For the same molecule, the concentration giving a half-maximal response (EC50) at 229E Mpro amounted to 3.34 nM; with OC43 virus, 0.88 µM. In “in vitro [1]”, this molecule yielded an apparent permeability coefficient (Papp) of 5.11 ×10⁻⁶ cm/s. Further, the figures for the CLint scaled in the data set “in vitro [2]” and in the data set “in vitro [4]” were less than 60 mL/min/kg and less than 35 mL/min/kg, respectively.
As to `O=C(N[C@@H]1CCN(c2c(C(=O)N3CCOCC3)cc(Br)cc2C(F)(F)F)C1)c1cc(=O)[nH]c2ccccc12` [Compound 56], the EC50 at SARS-CoV-1 Mpro was 4.49 nM; in the data set with 229E virus, 0.062 µM; at MERS Mpro, 0.92 nM; at SARS-CoV-2 Mpro, 0.45 nM; in [3], 18.1 nM; on OC43 Mpro, 0.74 nM. Also, the 50% effective concentration (EC50) turned out to be 1.83 nM at 229E Mpro and 0.014 µM in the data set on OC43 virus. The same molecule showed a Papp in “in vitro [1]” of 10.9 ×10⁻⁶ cm/s. The intrinsic clearance (CLint scaled) is 400 mL/min/kg in the data set “in vitro [2]” and 157 mL/min/kg in “in vitro [4]”.
